Literature values, collected in patent publication US9238023B2, “Methods for improving health in humans” (Quality IP Holdings, LLC, priority 2012, dated 2016).

What was measured:
hGH = conditions: for effect on hGH: other amino acids, literature
GH = conditions: subcutaneous injection of 0.06 IU, GH deficient subjects

Row | Compound | effect on hGH (hGH) | other results
1 | N=C(N)NCCC[C@H](N)C(=O)O [arginine] | – | elevation of serum hGH levels (hGH; 30 g, males): 8.6 fold; increase of hGH levels (hGH; intravenous infusion 183 mg/kg body weight, females): > 20 fold
2 | N[C@@H](Cc1c[nH]cn1)C(=O)O [histidine] | marked increases in hGH | –
3 | NCCCC[C@H](N)C(=O)O [lysine] | marked increases in hGH | –
4 | CSCC[C@H](N)C(=O)O [methionine] | marked increases in hGH | –
5 | NCCC[C@H](N)C(=O)O [ornithine] | marked increases in hGH | –
6 | N[C@@H](Cc1ccccc1)C(=O)O [phenylalanine] | marked increases in hGH | –
7 | HGH: human growth hormone, subcutaneous injection in the treatment of GH deficient subjects | – | mean levels of GH reached (GH): 0.4 ng/mL
